Assay results published in patent US11560381B1, “Compounds and uses thereof” (Foghorn Therapeutics Inc., priority 2019, dated 2023).
Like-named read-outs stand apart in the source and are kept apart here.

Legend:
[1] = target: 3×FLAG-NLuc-BRD9 (Nano luciferase-BRD9 fusion protein) in SYO-1 cells (Homo sapiens (Human), UniProt Q9H8M2); experiment: SYO1 BRD9 NanoLuc degradation assay; assay type: cell-based; settings: SYO-1 cells expressing 3×FLAG-NLuc-BRD9, 6 hours incubation, read-out: SYO1 BRD9-NanoLuc degradation IC50
Description: Procedure: A stable SYO-1 cell line expressing 3×FLAG-NLuc-BRD9 was generated. On day 0 cells were seeded in 30 μL media into each well of 384-well cell culture plates. The seeding density was 8000 cells/well. On day 1, cells were treated with 30 nL DMSO or 30 nL of 3-fold serially DMSO-diluted compounds (10 points in duplicates with 1 μM as final top dose). Subsequently plates were incubated for 6 hours in a standard tissue culture incubator and equilibrated at room temperature for 15 minutes. Nanoluciferase activity was measured by adding 15 μL of freshly prepared Nano-Glo Luciferase Assay Reagent (Promega N1130), shaking the plates for 10 minutes and reading the bioluminescence using an EnVision reader.
Results: The Inhibition % was calculated using the following formula: % Inhibition=100×(LuMHC−Lumsample)/(LumHC−LumLC). DMSO treated cells are employed as High Control (HC) and 1 μM of a known BRD9 degrader standard treated cells are employed as Low Control (LC).

[2] = tested on: non-synovial control cancer cell lines (293T, A549, G401); experiment: Growth of non-synovial control cancer cell lines (crystal violet, colony imaging); assay type: cell-based; settings: FIGS. 5, 6, 7
Description: (§1) Cells were seeded into 12-well plates and treated with DMSO, 1 μM BRD9 inhibitor, Compound 2 (also known as BI-7273, see Martin et al, J Med Chem. 59(10):4462-4475 (2016); see structure of Compound 2 below), or 1 μM BRD9 degrader, Compound 1.
(§2) The number of cells was optimized for each cell line. Growth medium and compounds were refreshed every 3-5 days. SYO1, Yamato, A549, 293T and HS-SY-II cells were fixed and stained at day 11. ASKA cells were fixed and stained at day 23. Staining was done by incubation with crystal violet solution (0.5 g Crystal Violet, 27 ml 37% Formaldehyde, 100 mL 10×PBS, 10 mL Methanol, 863 dH20 to 1 L) for 30 min followed by 3× washes with water and drying the plates for at least 24 h at room temperature. Subsequently plates were scanned on an Odyssey CLx Imaging system (FIG. 6).
(§3) Cells were seeded into 96-well ultra low cluster plate (Costar, #7007) in 200 μL complete media and treated at day 2 with DMSO, Staurosporin, or BRD9 degarder, Compound 1, at indicated doses (FIG. 7). Media and compounds were changed every 5 d and cell colonies were imaged at day 14.

[3] = tested on: SYO1 cells; experiment: Cell cycle analysis (Click-iT Plus EdU Flow Cytometry Assay); assay type: cell-based; settings: SYO1, 200 nM or 1 μM, 8 or 13 days, compared to DMSO and lenalidomide
Description: Procedure: SYO1 cells were treated for 8 or 13 days with DMSO, a BRD9 degrader (Compound 1) at 200 nM or 1 μM, or an E3 ligase binder (lenalidomide) at 200 nM. Compounds were refreshed every 5 days. Cell cycle analysis was performed using the Click-iT™ Plus EdU Flow Cytometry Assay (Invitrogen). The apoptosis assay was performed using the Annexin V-FITC Apoptosis Detection Kit (Sigma A9210). Assays were performed according to the manufacturer's protocol.

[4] = tested on: synovial sarcoma cell lines (SYO1, HS-SY-II, ASKA); experiment: Growth of synovial sarcoma cell lines, 14-day crystal violet staining; assay type: cell-based; settings: for inhibition of cell growth: SYO1, HS-SY-II, ASKA, treated daily, day 14, FIG. 8
Description: (§4) Procedure: Cells were seeded into 6-well or 12-well plates and were treated daily with a BRD9 degrader (Compound 1), a bromo-domain BRD9 binder (Compound 2), E3 ligase binder (lenalidomide), DMSO, or staurosporin (positive control for cell killing), at indicated concentrations. The number of cells was optimized for each cell line. Growth media was refreshed every 5 days. By day 14, medium was removed, cells were washed with PBS, and stained using 500 μL of 0.005% (w/v) crystal violet solution in 25% (v/v) methanol for at least 1 hour at room temperature. Subsequently plates were scanned on an Odyssey CLx Imaging system.

[5] = tested on: synovial sarcoma cell lines (SYO1, Yamato, HS-SY-II, ASKA); experiment: Growth of synovial sarcoma cell lines (IncuCyte confluency, crystal violet, colony imaging); assay type: cell-based; settings: 1 μM or indicated concentrations, FIGS. 5, 6, 7
Description: Cells were treated with DMSO or the BRD9 degrader, Compound 1, at indicated concentrations, and proliferation was monitored from day 7 to day 14 by measuring confluency overtime using an IncuCyte live cell analysis system (FIG. 5). Growth medium and compounds were refreshed every 3-4 days.
as §1, §2, §3

[6] = tested on: non-synovial control cancer cell lines (RD, HCT116, Calu6); experiment: Growth of non-synovial control cancer cell lines, 14-day crystal violet staining; assay type: cell-based; settings: treated daily, day 14, FIG. 9
Description: as §4

[7] = target: BRD9 bromodomain (Flag-BRD9 P133-K239) (Homo sapiens (Human), UniProt Q9H8M2); experiment: BRD9 bromodomain TR-FRET competition binding assay; settings: Table 4; 3 nM Flag-BRD9, 3.75 nM biotinylated ligand, 90 minutes at room temperature
Description: Procedure: His-Flag-BRD9 (P133-K239; Swiss Prot Q9H8M2; SEQ ID NO:1 mgsshhhhhhenlyfq/gdykddddkgslevlfqg/[…] […]) was cloned, expressed, purified, and then treated with TEV protease. Cleaved His tag was removed by purification. The binding of a biotinylated small molecule ligand of BRD9 was assessed via the LANCE® TR-FRET platform (PerkinElmer), and the compounds were assayed for inhibitory activity against this interaction.
A mixture of biotinylated-ligand and SureLight™ Allophycocyanin-Streptavidin (APC-SA, PerkinElmer AD0201) in 50 mM HEPES (pH 7.4), 50 mM NaCl, 1 mM TCEP (pH 7), 0.01% (v/v) Tween-20, 0.01% (w/v) bovine serum albumin was added to a white 384-well PerkinElmer Proxiplate Plus plate. DMSO or 3-fold serially diluted compounds were then added to the Proxiplate followed by addition of Flag-BRD9. After a 10-minute incubation at room temperature, Eu-W1024 anti-FLAG (PerkinElmer, AD0273) was added. The final reaction mixture that contained 3.75 nM biotinylated ligand, 3 nM Flag-BRD9, 7.5 nM SureLight™ Allophycocyanin-Streptavidin, and 0.2 nM Eu-W1024 anti-FLAG was incubated at room temperature for 90 minutes.
Results: The plates were then read on a PerkinElmer Envision plate reader to determine the ratio of emission at 665 nm over 615 nm. […]

3×FLAG-NLuc-BRD9 (Nano luciferase-BRD9 fusion protein) in SYO-1 cells, sequence (Q9H8M2 whole entry, the tested form may be a part): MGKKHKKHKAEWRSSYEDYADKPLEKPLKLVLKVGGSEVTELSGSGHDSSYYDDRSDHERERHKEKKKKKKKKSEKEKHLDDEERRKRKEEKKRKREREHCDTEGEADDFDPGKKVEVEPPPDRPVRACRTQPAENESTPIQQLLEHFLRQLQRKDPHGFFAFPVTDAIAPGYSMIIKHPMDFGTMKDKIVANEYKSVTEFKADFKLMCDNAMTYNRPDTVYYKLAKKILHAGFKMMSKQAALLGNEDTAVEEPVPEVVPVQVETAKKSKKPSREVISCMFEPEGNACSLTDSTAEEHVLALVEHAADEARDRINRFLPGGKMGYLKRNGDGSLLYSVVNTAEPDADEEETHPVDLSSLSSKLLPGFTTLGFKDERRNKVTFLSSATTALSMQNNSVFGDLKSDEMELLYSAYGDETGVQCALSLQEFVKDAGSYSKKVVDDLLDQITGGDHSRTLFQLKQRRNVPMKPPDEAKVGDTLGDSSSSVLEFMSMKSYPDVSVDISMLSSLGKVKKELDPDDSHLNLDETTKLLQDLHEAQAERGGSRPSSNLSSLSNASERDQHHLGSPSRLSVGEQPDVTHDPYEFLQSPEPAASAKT
BRD9 bromodomain (Flag-BRD9 P133-K239), sequence (Q9H8M2 133-239): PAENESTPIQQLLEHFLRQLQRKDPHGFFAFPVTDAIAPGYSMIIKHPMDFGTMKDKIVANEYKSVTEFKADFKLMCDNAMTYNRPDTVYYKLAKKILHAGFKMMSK

COc1cc(-c2cn(C)c(=O)c3cnccc23)cc(OC)c1CN1CC(n2cc(COCc3ccc4c(c3)C(=O)N(C3CCC(=O)NC3=O)C4=O)nn2)C1 (stereo not drawn) [Compound D298]
DC50 ([1]; Table 5B): < 10 nM

COc1cc(-c2cc(C)c(=O)n(C)c2)cc(OC)c1CN1CC(C)(C#Cc2ccc3c(c2)C(=O)N(C2CCC(=O)NC2=O)C3)C1 (stereo not drawn) [Compound D450]
DC50 ([1]; Table 5C): < 10 nM

COc1cc(-c2cn(C)c(=O)c3cnccc23)cc(OC)c1CN(C)CC(=O)NCCOCCOCCNc1cccc2c1C(=O)N(C1CCC(=O)NC1=O)C2=O (stereo not drawn) [Compound 1]
inhibition of cell growth [2]: does not result in inhibition of the growth
numbers of cells in the S-phase of the cell cycle [3]: reduced numbers of cells in the S-phase of the cell cycle
inhibition of cell growth [4]: inhibition of the growth of the cells
growth inhibition compared among tested agents ([4]; all synovial cell lines, versus Compound 2 and lenalidomide): most significant growth inhibition in all synovial cell lines
inhibition of cell growth [5]: inhibition of the growth of the cells
inhibition of cell growth [6]: did not result in inhibition of the growth

COc1cc(-c2cn(C)c(=O)c3cnccc23)cc(OC)c1CN(C)C [Compound 2]
inhibition of cell growth [2]: does not result in inhibition of the growth
inhibition of cell growth [4]: inhibition of the growth of the cells
inhibition of cell growth [5]: inhibition of the growth of the cells
inhibition of cell growth [6]: did not result in inhibition of the growth

COc1cc(-c2cc(C(F)F)c(=O)n(C)c2)cc(OC)c1CN1CC(C#Cc2ccc3c(c2)C(=O)N(C2CCC(=O)NC2=O)C3)C1 (stereo not drawn) [Compound D439]
DC50 ([1]; Table 5C): < 10 nM

C/C=C/Cn1cc(-c2ccc(CN3CCN(S(=O)(=O)c4ccc5c(c4)C(=O)N(C4CCC(=O)NC4=O)C5)CC3)c(Cl)c2)n2cncc2c1=O (stereo not drawn) [Compound D464]
DC50 ([1]; Table 5C): ≥ 1000 nM

COc1cc(-c2cn(C)c(=O)c3cnccc23)cc(OC)c1CN1CCC2(CC1)CCN(C(=O)CCC#Cc1ccc3c(c1)C(=O)N(C1CCC(=O)NC1=O)C3=O)C2 (stereo not drawn) [Compound D220]
DC50 ([1]; Table 5B): < 10 nM

COc1cc(-c2cn(C)c(=O)c3cnccc23)cc(OC)c1CN(C)CCCCN1CC2(CCN(c3ccc4c(c3)C(=O)N(C3CCC(=O)NC3=O)C4=O)C2)C1 (stereo not drawn) [Compound D248]
DC50 ([1]; Table 5B): 10 to 100 nM

COc1cc(-c2cn(C)c(=O)c3cnccc23)cc(OC)c1CN1CC2(CCN(C(=O)CCOCCOc3cccc4c3C(=O)N(C3CCC(=O)NC3=O)C4=O)C2)C1 (stereo not drawn) [Compound D90]
DC50 ([1]; Table 5A): 10 to 100 nM
IC50 [7]: < 10 nM

COc1cc(-c2cn(C)c(=O)c3[nH]ccc23)cc(OC)c1CN1CCC2(CC1)CN(c1ccc3c(c1)C(=O)N(C1CCC(=O)NC1=O)C3)C2 (stereo not drawn) [Compound D419]
DC50 ([1]; Table 5C): < 10 nM

COc1cc(-c2cn(C)c(=O)c3cnccc23)cc(OC)c1CN1CCC(COC2CCN(C(=O)CCOCCOc3cccc4c3C(=O)N(C3CCC(=O)NC3=O)C4=O)C2)CC1 (stereo not drawn) [Compound D94]
DC50 ([1]; Table 5A): 10 to 100 nM
IC50 [7]: 10 to 100 nM

COc1cc(-c2cc(C)c(=O)n(C)c2)cc(OC)c1CN1CC(C#Cc2ccc3c(c2)C(=O)N(C2CCC(=O)NC2=O)C3)C1C (stereo not drawn) [Compound D453]
DC50 ([1]; Table 5C): < 10 nM

COc1cc(-c2cn(C)c(=O)c3c[nH]nc23)cc(OC)c1CN1CCC2(CC1)CN(c1ccc3c(c1)C(=O)N(C1CCC(=O)NC1=O)C3)C2 (stereo not drawn) [Compound D420]
DC50 ([1]; Table 5C): < 10 nM

COc1cc(-c2cn(C)c(=O)c3cnccc23)cc(OC)c1CN(C)CCCCNC1CC2(CCN(c3ccc4c(c3)C(=O)N(C3CNC(=O)CC3=O)C4=O)CC2)C1 (stereo not drawn) [Compound D247]
DC50 ([1]; Table 5B): < 10 nM
